From patent publication US12391737B2, “Soluble NPY2 receptor agonists” (Boehringer Ingelheim International GmbH, priority 2020, dated 2025)
*1 amine or outer side, *2 acyl side, *3 side chain or, on linkers, in order; H or OH if unused. Where a SMILES comes first, the peptide text is derived from it. Side-chain parts run from the residue outwards. The star is where a group is joined. C18 diacid = O=C(O)CCCCCCCCCCCCCCCCC(=O)*; γGlu = O=C(O)[C@H](CCC(=O)[*:2])N[*:1]; Isovaleryl = CC(C)CC(=O)*; Ahx = NCCCCCC(=O)O

How the values were obtained:
[1] = molecular target: T1, Human Neuropeptide Y2 Receptor (Homo sapiens, UniProt P49146); assay: Radioligand binding competition assay (RLB); conditions: Table 3, 125I-PYY(1-36) competition; read-out: Ki
T1 construct: purchased CHEMICON HTS066M
T1 sequence (P49146 1-381): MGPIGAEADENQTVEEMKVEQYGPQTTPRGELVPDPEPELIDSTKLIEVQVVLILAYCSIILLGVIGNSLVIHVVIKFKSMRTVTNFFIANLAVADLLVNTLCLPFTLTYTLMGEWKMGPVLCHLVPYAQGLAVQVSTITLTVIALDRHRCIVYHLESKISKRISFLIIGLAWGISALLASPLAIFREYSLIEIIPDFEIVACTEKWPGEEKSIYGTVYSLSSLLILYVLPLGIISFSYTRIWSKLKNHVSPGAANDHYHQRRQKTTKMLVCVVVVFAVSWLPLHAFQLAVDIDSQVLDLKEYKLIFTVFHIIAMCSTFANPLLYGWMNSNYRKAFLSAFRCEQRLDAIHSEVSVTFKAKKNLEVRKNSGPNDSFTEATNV
Outline: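 IC50 values come from sigmoidal dose-response fits of scintillation counts after peptides competed for radioligand binding at receptor membranes (0.5 μg protein/well). Incubation ran 2 h at room temperature in HEPES buffer, pH 7.4, with Mg2+, Ca2+ and 0.2% ovalbumin.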

Solubility determination = conditions: for Sol6: pH 6; for Sol7: pH 7
Outline: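 First, TFA-salt peptide was added to 0.1 M sodium diphosphate (pH 6.4 or 7.0) to 10 mg/ml and shaken 2 h at room temperature. Next, insoluble material was filtered off. Finally, filtrate and control, each 1 mg/ml in 50% acetonitrile, were compared by reversed-phase chromatography.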

Compound | Ki [1] [nM] | Sol6 (Solubility determination) [mg/mL] | Sol7 (Solubility determination) [mg/mL]
CC(C)CC(=O)N[C@@H](C)C(=O)N1CCC[C@H]1C(=O)N[C@@H](CCC(=O)O)C(=O)N[C@@H](CCCCNC(=O)CCCCCNC(=O)CC[C@H](NC(=O)CCCCCCCCCCCCCCCCC(=O)O)C(=O)O)C(=O)N1CCC[C@H]1C(=O)N1CCC[C@H]1C(=O)N[C@@H](C)C(=O)N[C@@H](CC(=O)O)C(=O)N[C@@H](C)C(=O)N[C@H](C(=O)N1CCC[C@H]1C(=O)N[C@@H](CCC(=O)O)C(=O)N[C@@H](CCC(=O)O)C(=O)N[C@@H](CC(C)C)C(=O)N[C@@H](CCC(N)=O)C(=O)N[C@@H](CCCNC(=N)N)C(=O)N[C@@H](Cc1ccc(O)cc1)C(=O)N[C@@H](Cc1ccc(O)cc1)C(=O)N[C@H](C(=O)N[C@@H](CO)C(=O)N[C@@H](CC(C)C)C(=O)N[C@@H](CCCNC(=N)N)C(=O)N[C@@H](Cc1c[nH]cn1)C(=O)N[C@@H](Cc1ccc(O)cc1)C(=O)N[C@@H](Cc1ccc(O)cc1)C(=O)N[C@@H](CC(N)=O)C(=O)N[C@@H](Cc1c[nH]c2ccccc12)C(=O)N[C@@H](CC(C)C)C(=O)N[C@H](C(=O)N[C@@H](CCCNC(=N)N)C(=O)N[C@@H](CCC(N)=O)C(=O)N[C@@H](CCCNC(=N)N)C(=O)N[C@@H](Cc1ccc(O)cc1)C(N)=O)[C@@H](C)O)C(C)C)[C@@H](C)O [Compound 30, N{alpha-4}-(3-methylbutanoyl)-N{epsilon-7}-(6-[(4S)-4-carboxy-4-(17-carboxyheptadecanamido)butanamido]hexanoyl)[4A,7K,9P,10A,13T,18Q,22V,28Y,30W,31L]-hPYY(4-36)] (Isovaleryl-APEK([Ahx-γGlu-C18 diacid])PPADATPEELQRYYVSLRHYYNWLTRQRY-NH2) | 0.3 | 0.1 | 9.4
CC(C)CC(=O)N[C@@H](C)C(=O)N1CCC[C@H]1C(=O)N[C@@H](C)C(=O)N[C@@H](CCCCNC(=O)CCCCCNC(=O)CC[C@H](NC(=O)CCCCCCCCCCCCCCCCC(=O)O)C(=O)O)C(=O)N1CCC[C@H]1C(=O)N[C@@H](CCC(=O)O)C(=O)N[C@@H](CCC(=O)O)C(=O)N[C@@H](CC(=O)O)C(=O)N[C@@H](C)C(=O)N[C@@H](CCC(=O)O)C(=O)N1CCC[C@H]1C(=O)N[C@@H](CCC(=O)O)C(=O)N[C@@H](CCC(=O)O)C(=O)N[C@@H](CC(C)C)C(=O)N[C@@H](CCC(N)=O)C(=O)N[C@@H](CCCNC(=N)N)C(=O)N[C@@H](Cc1ccc(O)cc1)C(=O)N[C@@H](Cc1ccc(O)cc1)C(=O)N[C@H](C(=O)N[C@@H](CO)C(=O)N[C@@H](CC(C)C)C(=O)N[C@@H](CCCNC(=N)N)C(=O)N[C@@H](Cc1c[nH]cn1)C(=O)N[C@@H](Cc1ccc(O)cc1)C(=O)N[C@@H](Cc1ccc(O)cc1)C(=O)N[C@@H](CC(N)=O)C(=O)N[C@@H](Cc1c[nH]c2ccccc12)C(=O)N[C@@H](CC(C)C)C(=O)N[C@H](C(=O)N[C@@H](CCCNC(=N)N)C(=O)N[C@@H](CCC(N)=O)C(=O)N[C@@H](CCCNC(=N)N)C(=O)N[C@@H](Cc1ccc(O)cc1)C(N)=O)[C@@H](C)O)C(C)C [Compound 133, N{alpha-4}-(3-methylbutanoyl)-N{epsilon-7}-(6-[(4S)-4-carboxy-4-(17-carboxyheptadecanamido)butanamido]hexanoyl)-[4A,6A,7K,9E,13E,18Q,22V,28Y,30W,31L]-hPYY(4-36)] | 4.68 | 9.6 | 9.7
CC(C)CC(=O)N[C@@H](C)C(=O)N1CCC[C@H]1C(=O)N[C@@H](CCC(=O)O)C(=O)N[C@@H](CCCCNC(=O)CCCCCNC(=O)CC[C@H](NC(=O)CCCCCCCCCCCCCCCCC(=O)O)C(=O)O)C(=O)N1CCC[C@H]1C(=O)N[C@@H](CCC(=O)O)C(=O)N[C@@H](CCC(=O)O)C(=O)N[C@@H](CC(=O)O)C(=O)N[C@@H](C)C(=O)N[C@H](C(=O)N1CCC[C@H]1C(=O)N[C@@H](CCC(=O)O)C(=O)N[C@@H](CCC(=O)O)C(=O)N[C@H](C(=O)N[C@@H](CCC(N)=O)C(=O)N[C@@H](CCCNC(=N)N)C(=O)N[C@@H](Cc1ccc(O)cc1)C(=O)N[C@@H](Cc1ccc(O)cc1)C(=O)N[C@H](C(=O)N[C@@H](CO)C(=O)N[C@@H](CC(C)C)C(=O)N[C@@H](CCCNC(=N)N)C(=O)N[C@@H](Cc1c[nH]cn1)C(=O)N[C@@H](Cc1ccc(O)cc1)C(=O)N[C@@H](Cc1ccc(O)cc1)C(=O)N[C@@H](CC(N)=O)C(=O)N[C@@H](Cc1c[nH]c2ccccc12)C(=O)N[C@@H](CC(C)C)C(=O)N[C@H](C(=O)N[C@@H](CCCNC(=N)N)C(=O)N[C@@H](CCC(N)=O)C(=O)N[C@@H](CCCNC(=N)N)C(=O)N[C@@H](Cc1ccc(O)cc1)C(N)=O)[C@@H](C)O)C(C)C)C(C)C)[C@@H](C)O [Compound 58, N{alpha-4}-(3-methylbutanoyl)-N{epsilon-7}-(6-[(4S)-4-carboxy-4-(17-carboxyheptadecanamido)butanamido]hexanoyl)-[4A,7K,9E,13T,17V,18Q,22V,28Y,30W,31L]-hPYY(4-36)] | 3.46 | 8.6 | 8.8
CC[C@H](C)[C@H](NC(=O)[C@H](CCC(=O)O)NC(=O)[C@H](CCC(=O)O)NC(=O)[C@@H]1CCCN1C(=O)[C@@H](NC(=O)[C@H](C)NC(=O)[C@H](CC(=O)O)NC(=O)[C@H](CCC(=O)O)NC(=O)[C@H](CCC(=O)O)NC(=O)[C@@H]1CCCN1C(=O)[C@H](CCCCNC(=O)CCCCCNC(=O)CC[C@H](NC(=O)CCCCCCCCCCCCCCCCC(=O)O)C(=O)O)NC(=O)[C@H](CCC(=O)O)NC(=O)[C@@H]1CCCN1C(=O)[C@H](C)NC(=O)CC(C)C)[C@@H](C)O)C(=O)N[C@@H](CCC(N)=O)C(=O)N[C@@H](CCCNC(=N)N)C(=O)N[C@@H](Cc1ccc(O)cc1)C(=O)N[C@@H](Cc1ccc(O)cc1)C(=O)N[C@@H](C)C(=O)N[C@@H](CO)C(=O)N[C@@H](CC(C)C)C(=O)N[C@@H](CCCNC(=N)N)C(=O)N[C@@H](Cc1c[nH]cn1)C(=O)N[C@@H](Cc1ccc(O)cc1)C(=O)N[C@@H](Cc1ccc(O)cc1)C(=O)N[C@@H](CC(N)=O)C(=O)N[C@@H](Cc1c[nH]c2ccccc12)C(=O)N[C@@H](CC(C)C)C(=O)N[C@H](C(=O)N[C@@H](CCCNC(=N)N)C(=O)N[C@@H](CCC(N)=O)C(=O)N[C@@H](CCCNC(=N)N)C(=O)N[C@@H](Cc1ccc(O)cc1)C(N)=O)[C@@H](C)O [Compound 86, N{alpha-4}-(3-methylbutanoyl)-N{epsilon-7}-(6-[(4S)-4-carboxy-4-(17-carboxyheptadecanamido)butanamido]hexanoyl)-[4A,7K,9E,13T,17I,18Q,28Y,30W,31L]-hPYY(4-36)] | 4.33 | >10.0 | >10.0
CC(C)CC(=O)N[C@@H](C)C(=O)N1CCC[C@H]1C(=O)N[C@@H](CCC(=O)O)C(=O)N[C@@H](CCCCNC(=O)CCCCCNC(=O)CC[C@H](NC(=O)CCCCCCCCCCCCCCCCC(=O)O)C(=O)O)C(=O)N1CCC[C@H]1C(=O)N[C@@H](CCC(=O)O)C(=O)N[C@@H](CCC(=O)O)C(=O)N[C@@H](CC(=O)O)C(=O)N[C@@H](C)C(=O)N[C@H](C(=O)N1CCC[C@H]1C(=O)N[C@@H](CCC(=O)O)C(=O)N[C@@H](CCC(=O)O)C(=O)N[C@@H](CC(C)C)C(=O)N[C@@H](CCC(N)=O)C(=O)N[C@@H](CCCNC(=N)N)C(=O)N[C@@H](Cc1ccc(O)cc1)C(=O)N[C@@H](Cc1ccc(O)cc1)C(=O)N[C@H](C(=O)N1CCC[C@H]1C(=O)N[C@@H](CC(C)C)C(=O)N[C@@H](CCCNC(=N)N)C(=O)N[C@@H](Cc1c[nH]cn1)C(=O)N[C@@H](Cc1ccc(O)cc1)C(=O)N[C@@H](Cc1ccc(O)cc1)C(=O)N[C@@H](CC(N)=O)C(=O)N[C@@H](Cc1c[nH]c2ccccc12)C(=O)N[C@@H](CC(C)C)C(=O)N[C@H](C(=O)N[C@@H](CCCNC(=N)N)C(=O)N[C@@H](CCC(N)=O)C(=O)N[C@@H](CCCNC(=N)N)C(=O)N[C@@H](Cc1ccc(O)cc1)C(N)=O)[C@@H](C)O)C(C)C)[C@@H](C)O [Compound 87, N{alpha-4}-(3-methylbutanoyl)-N{epsilon-7}-(6-[(4S)-4-carboxy-4-(17-carboxyheptadecanamido)butanamido]hexanoyl)-[4A,7K,9E,13T,18Q,22V,23P,28Y,30W,31L]-hPYY(4-36)] | 22.4 | 9.7 | 9.7
